Experimental findings from ChEMBL document CHEMBL1201862, “PubChem BioAssay data set” (2004) are described below.

Activity calls are given as the source filed them. Bounds are passed on as bounds.

Assay [1] has as its target T1, Calpain-2 catalytic subunit (Sus scrofa, UniProt P43367).
T1 sequence (P43367 whole entry): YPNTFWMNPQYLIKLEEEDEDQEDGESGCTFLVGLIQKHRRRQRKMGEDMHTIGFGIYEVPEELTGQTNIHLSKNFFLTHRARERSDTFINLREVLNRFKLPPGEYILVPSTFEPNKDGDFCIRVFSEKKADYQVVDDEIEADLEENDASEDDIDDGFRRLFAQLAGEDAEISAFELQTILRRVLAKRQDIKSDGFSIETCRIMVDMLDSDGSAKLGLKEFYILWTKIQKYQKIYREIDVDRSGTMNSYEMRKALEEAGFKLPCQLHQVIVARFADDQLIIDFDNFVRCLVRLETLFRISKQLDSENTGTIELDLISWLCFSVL
Put plainly: m-calpain protease blockers, concentration series – biochemical, fluorogenic peptide substrate, dose response (AID 1420). It counts as functional.

Assay [2] addresses T2, Mannose-6-phosphate isomerase (Homo sapiens, UniProt P34949).
T2 sequence (P34949 whole entry): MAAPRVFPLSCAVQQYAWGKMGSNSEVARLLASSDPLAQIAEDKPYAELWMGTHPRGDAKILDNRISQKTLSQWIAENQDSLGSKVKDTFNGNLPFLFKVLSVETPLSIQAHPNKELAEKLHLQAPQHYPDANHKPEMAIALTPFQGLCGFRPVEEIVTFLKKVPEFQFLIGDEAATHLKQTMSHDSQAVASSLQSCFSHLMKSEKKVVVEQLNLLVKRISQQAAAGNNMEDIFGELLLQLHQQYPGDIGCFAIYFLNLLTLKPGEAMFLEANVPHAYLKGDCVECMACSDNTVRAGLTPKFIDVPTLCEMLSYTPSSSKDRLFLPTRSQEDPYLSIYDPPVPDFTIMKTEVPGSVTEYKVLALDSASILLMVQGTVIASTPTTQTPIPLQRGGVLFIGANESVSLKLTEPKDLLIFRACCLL
Put plainly: MPI inhibition at elevated mannose 6-phosphate – biochemical, fluorescence intensity, high mannose 6-phosphate, primary screen (AID 1220).

The nature of assay [3]: cells. It counts as functional.
Assay [4] in a line: viability loss of HPDE-C7K cells – cell-based, fluorescence, HTS, primary screen (AID 431). It counts as functional. As to conditions: Homo sapiens.
Assay [5] can be described thus: HPDE-C7 pancreatic duct cell viability loss – fluorescence, HTS (AID 430). Format: functional, cell-based. The settings on record: Homo sapiens.
A short description of assay [6]: microbe, parasite or virus in culture. Format: functional. As to conditions: Mycobacterium tuberculosis.
Assay [7] in a line: cells. Format: functional, cell-based.
In assay [8] the target is T3, DNA dC->dU-editing enzyme APOBEC-3G (Homo sapiens, UniProt Q9HC16). Put plainly: Dose Response confirmation of small molecule APOBEC3G DNA Deaminase Inhibitors via a fluorescence-based single-stranded DNA deaminase assay. [Related pubchem assays (depositor defined):AID493012, AID493028]. Format: functional.
T3 sequence (Q9HC16 whole entry): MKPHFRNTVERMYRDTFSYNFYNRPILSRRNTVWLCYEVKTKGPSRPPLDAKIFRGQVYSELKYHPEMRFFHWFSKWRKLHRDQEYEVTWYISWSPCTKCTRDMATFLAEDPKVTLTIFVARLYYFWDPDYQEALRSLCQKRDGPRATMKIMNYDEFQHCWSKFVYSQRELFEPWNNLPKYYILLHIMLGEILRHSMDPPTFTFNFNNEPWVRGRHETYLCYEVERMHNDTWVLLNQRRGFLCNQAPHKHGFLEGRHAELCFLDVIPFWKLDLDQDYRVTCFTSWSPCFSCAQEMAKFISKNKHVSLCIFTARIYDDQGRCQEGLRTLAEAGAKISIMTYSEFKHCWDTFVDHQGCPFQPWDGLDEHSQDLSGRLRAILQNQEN
Assay [9] concerns the target Glucose-6-phosphate 1-dehydrogenase (Homo sapiens, UniProt P11413). In words: inhibition of Homo sapiens G6PD, dose series – biochemical, fluorescence, selectivity assay for P. falciparum G6PD inhibitor project, dose response (AID 504792). Format: functional.
Assay [10] is described as follows: cells. It counts as functional, cell-based. The source holds these as a separate data set.
The target of assay [11] is T4, Short transient receptor potential channel 4 (Mus musculus, UniProt Q9QUQ5).
T4 sequence (Q9QUQ5 whole entry): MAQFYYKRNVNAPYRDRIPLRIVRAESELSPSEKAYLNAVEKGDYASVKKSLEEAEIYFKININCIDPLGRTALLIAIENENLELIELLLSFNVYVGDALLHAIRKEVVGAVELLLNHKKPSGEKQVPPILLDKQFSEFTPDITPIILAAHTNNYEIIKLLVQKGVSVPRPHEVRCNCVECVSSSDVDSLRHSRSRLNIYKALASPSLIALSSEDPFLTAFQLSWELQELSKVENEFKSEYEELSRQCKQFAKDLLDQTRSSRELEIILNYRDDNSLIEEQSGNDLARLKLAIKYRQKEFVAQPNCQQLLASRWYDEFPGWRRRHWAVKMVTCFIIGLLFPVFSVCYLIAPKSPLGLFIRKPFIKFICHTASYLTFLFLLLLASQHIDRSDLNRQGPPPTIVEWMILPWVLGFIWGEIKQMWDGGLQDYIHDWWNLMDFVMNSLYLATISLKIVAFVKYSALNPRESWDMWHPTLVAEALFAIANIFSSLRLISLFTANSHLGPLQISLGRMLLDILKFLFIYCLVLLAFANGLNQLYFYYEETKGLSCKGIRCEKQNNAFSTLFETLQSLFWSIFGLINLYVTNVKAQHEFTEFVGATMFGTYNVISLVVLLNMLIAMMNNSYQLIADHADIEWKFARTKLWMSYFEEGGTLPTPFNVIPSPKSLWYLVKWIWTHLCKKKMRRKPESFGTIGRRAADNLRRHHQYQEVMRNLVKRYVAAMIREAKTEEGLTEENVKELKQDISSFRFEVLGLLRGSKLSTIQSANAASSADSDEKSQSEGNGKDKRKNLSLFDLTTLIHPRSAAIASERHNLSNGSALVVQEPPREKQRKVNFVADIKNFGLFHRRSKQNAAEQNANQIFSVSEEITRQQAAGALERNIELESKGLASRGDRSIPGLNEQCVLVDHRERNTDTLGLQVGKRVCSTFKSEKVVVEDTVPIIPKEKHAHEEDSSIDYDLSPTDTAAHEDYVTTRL
In words: block of DAMGO-driven TRPC4 calcium entry – cell-based, HEK293 TRPC4/mu-opioid, Fluo-4 calcium, dose response (AID 434942).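 Note: potency of inhibitors blocking the TRPC4 calcium response.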 Format: functional.

In assay [12] the target is T3, DNA dC->dU-editing enzyme APOBEC-3G. It counts as functional.
The target of assay [13] is DNA dC->dU-editing enzyme APOBEC-3A (Homo sapiens, UniProt P31941). In words: Dose Response confirmation of small molecule APOBEC3A DNA Deaminase Inhibitors via a fluorescence-based single-stranded DNA deaminase assay. [Related pubchem assays (depositor defined):AID493011, AID493024]. It counts as functional.
DNA dC->dU-editing enzyme APOBEC-3A, sequence (P31941 whole entry): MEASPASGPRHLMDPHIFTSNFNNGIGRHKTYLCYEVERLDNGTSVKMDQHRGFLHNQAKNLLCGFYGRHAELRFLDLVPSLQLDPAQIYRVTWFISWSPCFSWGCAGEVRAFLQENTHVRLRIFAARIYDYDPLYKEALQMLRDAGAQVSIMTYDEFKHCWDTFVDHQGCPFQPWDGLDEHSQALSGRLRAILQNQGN
Assay [14] has as its target Peroxisome proliferator-activated receptor gamma/Nuclear receptor coactivator 2 (Homo sapiens, UniProt P37231). It counts as functional.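 Note: agonist potency for raising coactivator recruitment to the receptor.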
For assay [15], the target named is Peroxisome proliferator-activated receptor gamma/Nuclear receptor coactivator 3 (Homo sapiens, UniProt P37231). It counts as functional.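 Note: agonist potency for raising coactivator recruitment to the receptor.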
Assay [16] addresses Peroxisome proliferator-activated receptor gamma/Nuclear receptor coactivator 1 (Homo sapiens, UniProt P37231). Format: functional.
The target in a further assay is Trypsin (Sus scrofa, UniProt P00761). In words: trypsin protease activity blockade – biochemical, quenched peptide fluorescence, cherry-pick, selectivity assay for Rce1 protease inhibitor project, dose response (AID 488789).
Trypsin, sequence (P00761 whole entry): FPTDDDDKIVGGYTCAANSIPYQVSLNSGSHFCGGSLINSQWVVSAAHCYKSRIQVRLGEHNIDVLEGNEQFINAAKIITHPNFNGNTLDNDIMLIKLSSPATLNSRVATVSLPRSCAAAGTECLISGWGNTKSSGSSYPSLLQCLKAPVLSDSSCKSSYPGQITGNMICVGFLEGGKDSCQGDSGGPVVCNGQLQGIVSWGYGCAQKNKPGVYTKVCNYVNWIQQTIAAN
The next assay has as its target T5, CAAX prenyl protease 2 (Saccharomyces cerevisiae S288c, UniProt Q03530).
T5 sequence (Q03530 whole entry): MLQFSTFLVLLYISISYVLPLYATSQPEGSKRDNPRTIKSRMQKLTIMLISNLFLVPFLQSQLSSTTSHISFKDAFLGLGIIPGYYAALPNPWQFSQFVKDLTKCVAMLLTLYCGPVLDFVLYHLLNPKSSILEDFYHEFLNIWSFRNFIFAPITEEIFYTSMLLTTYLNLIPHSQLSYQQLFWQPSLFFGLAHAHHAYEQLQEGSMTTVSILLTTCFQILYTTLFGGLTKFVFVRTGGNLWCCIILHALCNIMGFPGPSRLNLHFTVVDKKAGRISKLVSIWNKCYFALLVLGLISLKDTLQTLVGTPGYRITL
Format: biochemical.

A short description of assay [17]: off-target signal loss in HeLa-CEM21 co-culture – HeLa F-luc CTL cells, cherry-picked, counter-screen for HIV-1 Env fusion inhibitor project, dose response (AID 652040).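 Note: potency for signal decrease marking cytotoxic or nonspecific inhibition.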 It counts as functional, cell-based.
Assay [18] can be described thus: Trypanosoma cruzi growth suppression in host cells – NIH3T3 host cells, beta-gal luminescence, confirmation (AID 2044).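 Note: intracellular parasites grown in NIH/3T3 mouse fibroblasts as host cells; luminescent beta-galactosidase reporter signal from transgenic T. cruzi replicating inside host cells; inhibitors lower the luminescence signal.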 It counts as functional, cell-based.
The nature of assay [19]: NIH3T3 cell viability loss – ATP luminescence, mouse fibroblasts, counter-screen, dose response (AID 2010).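 Note: cells exposed to compound for about 90 hours before reading.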 It counts as functional, cell-based.
The target in another assay is T6, Leucine aminopeptidase (Plasmodium falciparum 3D7, UniProt Q8IL11).
T6 sequence (Q8IL11 whole entry): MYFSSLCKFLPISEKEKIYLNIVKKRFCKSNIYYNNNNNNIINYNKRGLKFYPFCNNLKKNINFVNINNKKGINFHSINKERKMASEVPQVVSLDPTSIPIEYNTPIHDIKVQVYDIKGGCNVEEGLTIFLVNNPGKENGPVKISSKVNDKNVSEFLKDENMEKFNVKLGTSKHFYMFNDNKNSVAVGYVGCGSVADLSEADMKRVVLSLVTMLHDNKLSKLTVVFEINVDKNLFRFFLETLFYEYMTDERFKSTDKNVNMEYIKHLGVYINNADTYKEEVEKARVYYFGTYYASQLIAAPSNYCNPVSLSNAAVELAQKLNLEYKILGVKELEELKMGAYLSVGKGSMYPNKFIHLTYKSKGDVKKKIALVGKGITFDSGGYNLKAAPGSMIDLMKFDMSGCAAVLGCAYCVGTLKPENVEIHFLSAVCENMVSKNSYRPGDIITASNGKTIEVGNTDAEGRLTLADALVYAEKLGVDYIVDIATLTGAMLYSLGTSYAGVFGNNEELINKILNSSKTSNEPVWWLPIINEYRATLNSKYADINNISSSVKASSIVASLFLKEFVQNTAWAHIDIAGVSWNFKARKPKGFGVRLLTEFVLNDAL
Put plainly: P. falciparum M17LAP inhibitors, primary screen, biochemical, fluorogenic H-Leu-NHMec substrate, 1536-well (AID 1619). Format: functional.

Assay [20] addresses T7, Carboxy-terminal domain RNA polymerase II polypeptide A small phosphatase 1 (Homo sapiens, UniProt Q9GZU7).
T7 sequence (Q9GZU7 whole entry): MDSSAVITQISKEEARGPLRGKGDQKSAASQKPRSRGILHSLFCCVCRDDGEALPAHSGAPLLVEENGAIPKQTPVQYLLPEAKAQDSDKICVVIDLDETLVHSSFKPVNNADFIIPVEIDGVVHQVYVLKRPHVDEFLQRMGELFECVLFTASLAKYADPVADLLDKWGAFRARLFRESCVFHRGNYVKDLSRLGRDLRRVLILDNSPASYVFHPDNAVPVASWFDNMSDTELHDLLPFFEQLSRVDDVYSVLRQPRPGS
Put plainly: CTDSP1 inhibitors, concentration-response, biochemical, absorbance readout, ultra-high-throughput screen actives (AID 540297). It counts as functional.

Assay [21] in a line: viability of uninfected HEp-2 cells – cell-based, HTS, cytotoxicity control for RSV inhibitor project, dose response (AID 2410). Format: functional. As to conditions: human respiratory syncytial virus.

Peroxisome proliferator-activated receptor gamma/Nuclear receptor coactivator 1, sequence (P37231 whole entry): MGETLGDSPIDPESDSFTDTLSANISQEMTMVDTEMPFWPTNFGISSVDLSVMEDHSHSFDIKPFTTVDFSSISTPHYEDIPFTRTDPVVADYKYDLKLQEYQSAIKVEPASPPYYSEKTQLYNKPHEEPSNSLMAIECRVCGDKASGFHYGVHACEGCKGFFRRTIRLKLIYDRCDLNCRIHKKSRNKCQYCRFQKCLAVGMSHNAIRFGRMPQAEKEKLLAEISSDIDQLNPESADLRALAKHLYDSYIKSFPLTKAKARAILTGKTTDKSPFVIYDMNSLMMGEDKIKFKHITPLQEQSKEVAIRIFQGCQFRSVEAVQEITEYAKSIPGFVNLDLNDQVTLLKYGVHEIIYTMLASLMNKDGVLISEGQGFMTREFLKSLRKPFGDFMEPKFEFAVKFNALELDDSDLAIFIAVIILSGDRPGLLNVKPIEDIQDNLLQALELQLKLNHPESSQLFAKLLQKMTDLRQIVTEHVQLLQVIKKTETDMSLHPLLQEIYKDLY
Peroxisome proliferator-activated receptor gamma/Nuclear receptor coactivator 1, sequence (Q15788 whole entry, further chain): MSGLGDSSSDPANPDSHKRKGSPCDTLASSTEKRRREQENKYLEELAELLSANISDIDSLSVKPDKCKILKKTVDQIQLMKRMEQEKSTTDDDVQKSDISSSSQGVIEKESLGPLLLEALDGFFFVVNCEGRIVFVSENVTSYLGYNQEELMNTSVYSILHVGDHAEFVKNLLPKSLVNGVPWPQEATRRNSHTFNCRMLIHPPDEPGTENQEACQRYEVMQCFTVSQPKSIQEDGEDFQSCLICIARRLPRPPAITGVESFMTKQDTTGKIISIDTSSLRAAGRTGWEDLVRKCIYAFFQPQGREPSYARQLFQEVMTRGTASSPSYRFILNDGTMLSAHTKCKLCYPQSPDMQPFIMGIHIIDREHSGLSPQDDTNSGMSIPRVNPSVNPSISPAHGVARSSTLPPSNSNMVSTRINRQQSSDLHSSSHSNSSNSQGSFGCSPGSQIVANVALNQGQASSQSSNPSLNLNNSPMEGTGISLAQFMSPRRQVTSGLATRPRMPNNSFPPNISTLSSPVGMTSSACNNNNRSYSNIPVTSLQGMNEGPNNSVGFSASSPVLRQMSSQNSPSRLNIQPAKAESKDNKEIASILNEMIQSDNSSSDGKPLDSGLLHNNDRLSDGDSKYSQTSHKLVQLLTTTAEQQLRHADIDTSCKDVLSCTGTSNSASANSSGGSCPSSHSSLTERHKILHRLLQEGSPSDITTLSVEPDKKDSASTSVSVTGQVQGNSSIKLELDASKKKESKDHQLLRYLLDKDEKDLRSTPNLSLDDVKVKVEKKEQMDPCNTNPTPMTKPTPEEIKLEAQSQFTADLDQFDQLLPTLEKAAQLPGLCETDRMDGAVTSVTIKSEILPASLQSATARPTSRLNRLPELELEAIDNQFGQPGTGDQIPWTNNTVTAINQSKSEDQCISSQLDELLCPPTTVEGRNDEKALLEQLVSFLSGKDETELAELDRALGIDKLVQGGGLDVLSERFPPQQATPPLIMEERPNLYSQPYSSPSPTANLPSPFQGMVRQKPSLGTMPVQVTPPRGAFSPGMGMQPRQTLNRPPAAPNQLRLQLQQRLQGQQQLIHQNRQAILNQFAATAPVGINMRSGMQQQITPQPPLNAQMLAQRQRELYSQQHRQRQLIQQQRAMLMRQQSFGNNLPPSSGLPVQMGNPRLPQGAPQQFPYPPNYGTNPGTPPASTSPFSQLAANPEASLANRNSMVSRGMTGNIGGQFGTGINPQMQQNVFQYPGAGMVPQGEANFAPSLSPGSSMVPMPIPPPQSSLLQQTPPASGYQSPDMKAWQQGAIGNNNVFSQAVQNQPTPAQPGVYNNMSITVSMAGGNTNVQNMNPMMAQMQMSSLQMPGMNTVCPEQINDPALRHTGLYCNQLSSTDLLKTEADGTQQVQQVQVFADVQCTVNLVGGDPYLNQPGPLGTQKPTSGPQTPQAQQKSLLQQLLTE
Peroxisome proliferator-activated receptor gamma/Nuclear receptor coactivator 2, sequence (P37231 whole entry): as the sequence (P37231 whole entry) above
Peroxisome proliferator-activated receptor gamma/Nuclear receptor coactivator 2, sequence (Q15596 whole entry, further chain): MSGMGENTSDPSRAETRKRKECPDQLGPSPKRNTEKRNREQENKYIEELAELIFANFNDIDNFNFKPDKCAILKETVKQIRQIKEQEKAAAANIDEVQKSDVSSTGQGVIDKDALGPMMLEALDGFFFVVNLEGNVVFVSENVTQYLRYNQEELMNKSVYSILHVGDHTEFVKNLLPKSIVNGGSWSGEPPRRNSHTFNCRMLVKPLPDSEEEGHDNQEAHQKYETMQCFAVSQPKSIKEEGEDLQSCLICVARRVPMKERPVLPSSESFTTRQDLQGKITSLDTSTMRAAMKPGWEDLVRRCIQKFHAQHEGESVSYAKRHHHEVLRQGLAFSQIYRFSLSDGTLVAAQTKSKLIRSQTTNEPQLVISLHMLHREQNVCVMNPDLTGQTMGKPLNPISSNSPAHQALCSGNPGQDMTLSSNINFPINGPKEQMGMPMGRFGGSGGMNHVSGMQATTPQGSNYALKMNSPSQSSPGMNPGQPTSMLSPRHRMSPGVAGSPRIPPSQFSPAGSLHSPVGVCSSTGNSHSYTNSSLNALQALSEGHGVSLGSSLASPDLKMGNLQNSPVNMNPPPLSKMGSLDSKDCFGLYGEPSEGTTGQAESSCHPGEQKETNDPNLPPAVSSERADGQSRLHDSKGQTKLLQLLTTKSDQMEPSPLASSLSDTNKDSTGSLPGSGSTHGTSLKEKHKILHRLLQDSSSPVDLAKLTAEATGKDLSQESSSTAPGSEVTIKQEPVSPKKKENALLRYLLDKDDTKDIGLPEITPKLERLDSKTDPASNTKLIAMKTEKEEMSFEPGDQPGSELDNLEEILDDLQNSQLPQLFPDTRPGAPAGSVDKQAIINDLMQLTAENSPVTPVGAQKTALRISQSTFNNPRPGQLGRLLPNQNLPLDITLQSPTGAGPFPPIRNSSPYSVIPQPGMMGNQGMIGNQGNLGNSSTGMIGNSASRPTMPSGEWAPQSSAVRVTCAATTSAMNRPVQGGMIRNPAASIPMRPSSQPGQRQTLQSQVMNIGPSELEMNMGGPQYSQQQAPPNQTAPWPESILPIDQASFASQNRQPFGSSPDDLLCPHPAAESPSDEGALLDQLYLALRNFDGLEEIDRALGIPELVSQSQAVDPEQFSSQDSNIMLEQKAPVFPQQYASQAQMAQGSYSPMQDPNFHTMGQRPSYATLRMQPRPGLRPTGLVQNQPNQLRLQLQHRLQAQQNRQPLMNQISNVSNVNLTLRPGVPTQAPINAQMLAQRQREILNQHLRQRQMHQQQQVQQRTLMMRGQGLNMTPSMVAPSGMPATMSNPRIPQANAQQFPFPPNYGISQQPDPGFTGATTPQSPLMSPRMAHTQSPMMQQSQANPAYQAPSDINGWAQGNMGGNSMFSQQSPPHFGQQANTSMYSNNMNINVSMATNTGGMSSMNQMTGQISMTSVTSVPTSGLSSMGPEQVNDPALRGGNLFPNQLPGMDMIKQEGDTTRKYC

Regarding `COCCn1c(C)cc(C(=O)COC(=O)CNC(=O)c2ccccc2)c1C`, in [1], the IC50 is > 50 µM (not active).

Regarding `Oc1ccc(F)c2cccnc12`, the IC50 in assay [2] is 7.42 µM (active); in “cells [3]”, 4.21 µM (active).

With `CC(C)(C)c1ccc(Cn2nnc3c(O)nc(C4CCCN(C(=O)Cc5cccs5)C4)nc32)cc1` (stereo not given), the EC50 in [4] is 18.4 µM (active); in assay [5] it was 15.6 µM (active). Further, in [6], the CC50 is > 40 µM (active).

In the case of `CCC(C)(C)c1nnc(NC(=O)C2CCN(C(=O)c3ccco3)CC2)s1`, the EC50 in the assay “cells [7]” and in “cells [10]” was > 350 µM (not active) in each case. Besides, the IC50 in [8] is 25.9 µM (active); in assay [9] it was > 80 µM (inactive).

`O=c1c2ccccc2[nH]c(=S)n1CCN1CCN(Cc2ccccc2)CC1`: the EC50 in assay [11] was 4.73 µM (active).

`O=C(COC(=O)Cn1cnc2ccccc2c1=O)Nc1ccccc1Sc1ccc(Cl)cc1`: the EC50 in [11] is 1.88 µM (active).

Take `CNC(=O)OCc1n(C)cc[n+]1C`: the IC50 was 1.31 µM (active) in [12] and 1.76 µM (active) in assay [13].

On to `CCn1c(=N)n(CC(=O)c2ccc(Br)s2)c2ccccc21`, for which the EC50 in assay [11] was 13.3 µM (active).

`COC(=O)c1ccccc1NC(=O)c1cc(-c2ccc(O)cc2)on1`: the concentration giving a half-maximal response (EC50) is listed as 31.5 µM (not active) in [14], 33.6 µM (not active) in [15] and 24.9 µM (not active) in assay [16].

As to `Cc1oc(-c2ccoc2)nc1CN(Cc1ccccc1)CC1CC1`, the EC50 in assay [11] is 4.22 µM (active).

As to `CC(C)(C)NC(=O)c1ccc(Sc2ccccc2)c([N+](=O)[O-])c1`, the IC50 in assay [1] is on record as 11.9 µM (not active).

Consider `Cc1cccc2[nH]c3c(N4CCC5(CC4)OCCO5)ncnc3c12`, for which the AC50 on Trypsin was 36.5 µM (active); at CAAX prenyl protease 2, 13.7 µM (active).

With `COc1ccc(OCC(=O)Nc2cc(-c3nn(C)c(=O)c4ccccc34)ccc2OC)cc1`, the results for the EC50 in [14], in assay [15] and in assay [16] were 31.2 µM (not active), 76.6 µM (not active) and 62.6 µM (not active), respectively. Besides, the AC50 in assay [17] is 30.3 µM (active).

With `Cc1nc(N2CCOCC2)c2c(C)c(C(=O)Nc3ccc(C(F)(F)F)cc3)sc2n1`, the AC50 on CAAX prenyl protease 2 is 5.99 µM (active). Besides, the EC50 is 522 nM (active) in [18] and > 60 µM (not active) in assay [19].

For `CC(C)c1ccc(C(=O)CSc2nc[nH]n2)cc1`, the half-maximal inhibitory concentration (IC50) in [2] is 9.69 µM (active); on Leucine aminopeptidase, 33 µM (active).

As for `C[N+](C)(C)CCCN(Cc1ccc2c(c1)OCO2)C(=O)NC1CCCCC1`, the IC50 in assay [12] is 4.17 µM (active); in assay [20], 3.12 µM (active); in assay [13], 2.43 µM (active).

For the compound `CCOC(=O)C1=C(C)N=C(C)/C(=C(/O)OC)C1c1cccc(Cl)c1Cl` (stereo not given), the EC50 is 10.4 µM (active) in assay [4] and 8.98 µM (active) in [5].

For `CCOC(=O)c1c2c(c(=S)n(-c3ccccc3)c1N)CCC2`, the figures for the EC50 in assay [4] and in assay [5] were 9.88 µM (active) and 10.4 µM (active), respectively. In addition, the half-maximal inhibitory concentration (IC50) in assay [1] is given as 7.26 µM (not active). The CC50 in [21] is 26.4 µM (active).
